Measurements taken from patent US6972291B2, “Method for reducing food intake” (priority 2002, dated 2005).
Structures can show the parent of a compound that is named as a salt. Where two headings read alike, the source gives them in different places.

Legend:
[1] = system: food or carbohydrate craving in patients; test: Low-dose naltrexone patient study: subjective naltrexone efficacy rating (zero to ten) on food or carbohydrate craving; type: in vivo, human; set-up: key to naltrexone efficacy rating: 0 = no benefit on craving, 10 = no food/carbohydrate craving; conditions: scale zero to ten
Description: Fifty mg naltrexone tablets (REVIA) were ground, mixed with lactose and dispensed at lower doses into capsules by a compounding chemist according to standard methods in doses indicated in the following examples.
(§1) For each patient described below, the patient was given an initial dose and the dose was then tailored to the patient. The dose of naltrexone was lowered when the patient experienced side effects, including headaches, nausea and/or difficulty concentrating on complex tasks, or if naltrexone is inadequately effective at a higher dose. […] Although “final” values are provided, the study continues unless termination is indicated. The following patients, as well as additional patients are currently being studied. All patients were treated for at least two months, unless released from the study due to adverse effects that were not relieved by reducing the dosage of naltrexone.
The “rating” of naltrexone efficacy is a subjective scale of zero to ten. A value of zero means that the patient experiences no beneficial effects upon food or carbohydrate craving when taking naltrexone. A value of ten means that the patient experiences no food or carbohydrate craving after taking naltrexone, and can maintain control even when a tantalizing carbohydrate-laden treat, such as a hot buttered roll, a cookie or ice cream, is placed in front of the patient, even when the patient is hungry. For diabetics, a value of eight or greater is considered a success. In contrast, for obese, non-diabetics, a value of six or greater is considered a success because carbohydrates need to be controlled, but not as diligently controlled as with diabetics.
Of note, one patient who snacked between dinner and bedtime also had insomnia. […] Unless otherwise noted, all patients are diabetics. Patients who experienced a naltrexone efficacy rating of greater than or equal to 8 also experienced a suppression of both carbohydrate craving and any tendency to overeat, in general.

animals = conditions: cited from earlier work
squirrel monkeys = conditions: cited from earlier work
patients = test: Side effects of low-dose naltrexone therapy in patients; type: in vivo, human
Description: These effects included tiredness, headache, nausea, impaired libido, diminished pleasure in daily activities and difficulty concentrating on complex tasks. Such problems nearly always occur after the first dose or a dosage increase. When they occur, the dose of naltrexone must either be lowered or naltrexone therapy must be discontinued if lower doses are ineffective.
Another side effect that some patients relate is a feeling of mental confusion that impairs concentration upon difficult tasks. Like a headache, this effect is unacceptable. For this reason, a patient typically is started on a very low dose—for example, and without limitation, 1 mg capsules—and the amount of each dose is then increased or decreased until an effective level is reached at which the patient experiences no side effects.
as §1

[2] = system: carbohydrate craving in patients; test: Timing of naltrexone action on carbohydrate craving in patients (onset, duration); type: in vivo, human
Experimental: Naltrexone is preferably administered to act at the time(s) of day when overeating or carbohydrate craving occurs. Naltrexone usually starts working about 3–4 hours after it is taken and continues to work for about six hours, but this timing varies from person to person. If a patient overeats only at supper, they might take a dose about 3–4 hours prior to that meal. If their problem is from after lunch until bedtime, they might take a dose after breakfast, after lunch, and before or after supper, all by trial and error, to find the optimal timing. Different amounts of naltrexone also may be administered at different times, depending on a patient's response to each dosage at each time. If the patient experiences carbohydrate cravings at all waking hours, the patient might take a slow-release (extended-release) or timed-release dose at bedtime that would ideally cover the next morning, or take a dose in the middle of the night if the patient awakens to urinate, as many do. The patient then might take additional doses upon arising, before lunch, mid-afternoon, and after supper or a slow-release dose upon arising. […] Finding what works for any given patient's particular pattern of overeating or carbohydrate craving is trial and error. If a patient's problem is only at dinner when they eat out, then they might take the naltrexone about 3–4 hours before the planned dinnertime only on such days.

[3] = system: food or carbohydrate craving in patients; test: Low-dose naltrexone patient study: subjective naltrexone efficacy rating (zero to ten) on food or carbohydrate craving; type: in vivo, human; conditions: obese person
[4] = system: eating behavior in humans; conditions: cited from earlier work
[5] = patients, varies from person to person

O=C1CC[C@@]2(O)[C@H]3Cc4ccc(O)c5c4[C@@]2(CCN3CC2CC2)[C@H]1O5 [naltrexone HCl, naltrexone hydrochloride]
naltrexone efficacy rating ([1]; Patient 1, diabetic, 207.5 lbs, 12.5 mg twice daily tailored to 1 mg three times daily): ≥ 8 | naltrexone efficacy rating ([1]; Patient 2, diabetic, 256 lbs, 12.5 mg/d tailored to 12.5 mg four times per day): 7 to 8 | naltrexone efficacy rating ([1]; Patient 3, diabetic, 252 lbs, 12.5 mg when eating out tailored to 2 mg twice daily): ≥ 8 | naltrexone efficacy rating ([1]; Patient 4, non-diabetic patient, 183 lbs, 8 mg twice daily adjusted to 25 mg three times daily): 4 | naltrexone efficacy rating ([1]; Patient 5, diabetic, 162 lbs, 8 mg after lunch, unchanged): 10 | naltrexone efficacy rating ([1]; Patient 6, diabetic, 204 lbs, 6 mg twice daily tailored to 1 mg twice a day): 10 | naltrexone efficacy rating ([1]; Patient 7, polycystic ovarian syndrome, 170 lbs, 6 mg three times daily tailored to 36 mg/d): 8 to 9 | naltrexone efficacy rating ([1]; Patient 8, diabetic, 182 lbs, 8 mg after lunch tailored to 8 mg four times daily): 9.5 | naltrexone efficacy rating ([1]; Patient 9, diabetic, 106 lbs, 25 mg/d tailored to 50 mg/d, low doses not tried): < 8 | naltrexone efficacy rating ([1]; Patient 10, diabetic, 161 lbs, 12.5 mg three times daily adjusted to 50 mg three times daily, doses less than 12.5 mg not tried): zero | naltrexone efficacy rating ([1]; Patient 11, diabetic, 183 lbs, 8 mg/d tailored to 32 mg/d): ≥ 8 | naltrexone efficacy rating ([1]; Patient 12, diabetic, 114 lbs, 4 mg after lunch tailored to 4.5 mg): zero | naltrexone efficacy rating ([1]; Patient 13, diabetic, 208 lbs, 5 mg three times per day tailored to 8 mg twice per day): 8.5 | carbohydrate craving rating ([1]; Patient 14, diabetic, 226.5 lbs, 0.1 mg nine times per day adjusted to 50 mg three times daily): zero | naltrexone efficacy rating ([1]; Patient 15, diabetic, 184.25 lbs, 0.75 mg twice daily tailored to 0.25 mg twice daily): 10 | effect on body weight (animals): reduces body weight in animals without evidence of drug tolerance | anorexic effect (squirrel monkeys; doses of 0.22 mg/kg): slight anorexic effect | anorexic effect (squirrel monkeys; higher doses than 0.22 mg/kg): the anorexic effect was greater | side effects (patients; Patient 1, even at the final dosage (1 mg three times daily), discontinued treatment): headaches | side effects (patients; Patient 4, 8 mg twice daily adjusted to 25 mg three times daily, discontinued treatment): headaches | side effects (patients; Patient 12, even at the final dosage (4.5 mg), discontinued treatment): headaches | side effects (patients; Patient 15, final dose 0.25 mg twice daily): not at the final dose | side effects (patients; Patient 15, initial dose 0.75 mg twice daily): decreased libido, confusion, diminished animation and excessive loss of appetite | side effects (patients; obese person, 3 mg dose): no headache | side effects (patients; obese person, dose of 2 mg): no headache | side effects (patients; obese person, one 4 mg capsule): headache | side effects (patients; one patient who snacked between dinner and bedtime and had insomnia): made them tired | time covered by one small dose ([2]; certain patients): more than 24 hours | time at which efficacy is apparent ([2]; patients, low dose of naltrexone): apparent by the second day of treatment | time naltrexone continues to work [2, 5]: about six | time until naltrexone starts working after it is taken [2, 5]: 3 to 4 h | effect on cravings ([3]; 3 mg dose): cravings were curbed | effect on appetite ([3]; dose of 2 mg): appetite was unaffected | risk ([4]; DeZwaan et al. review): potential for liver damage | effect on sweet cravings ([4]; humans, Yeomans II, 50 mg, compared to other food categories): sweet cravings were not reduced | effect on binge eating ([4]; humans, one long-term study, 100 mg doses): binge eating was affected long-term | effect on food intake ([4]; humans, single-dose studies, short-term doses of 50 mg or greater): affect food intake
